The text below walks through data of US9024041B2, “P38 MAP kinase inhibitors” (Respivert Ltd., priority 2010, dated 2015).

Series [1] concerns the target T1, Recombinant, phosphorylated p38 MAPKγ (MAPK12:Invitrogen) (Homo sapiens, UniProt P53778).
T1 construct: purchased Invitrogen
T1 sequence (P53778 1-367): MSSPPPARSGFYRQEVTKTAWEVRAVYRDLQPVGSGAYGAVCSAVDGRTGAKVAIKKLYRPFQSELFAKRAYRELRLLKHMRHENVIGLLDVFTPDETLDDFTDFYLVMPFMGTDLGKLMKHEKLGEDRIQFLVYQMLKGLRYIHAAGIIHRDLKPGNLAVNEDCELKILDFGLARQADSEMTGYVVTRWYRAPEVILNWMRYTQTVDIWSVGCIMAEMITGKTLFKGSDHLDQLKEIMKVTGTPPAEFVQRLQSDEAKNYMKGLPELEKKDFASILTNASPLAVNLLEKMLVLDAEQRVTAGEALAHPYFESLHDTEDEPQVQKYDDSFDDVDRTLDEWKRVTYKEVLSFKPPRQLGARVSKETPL
Put plainly: p38 MAPKγ enzyme inhibition assay (FRET, Z-LYTE). Type of series: biochemical. The note with it: 2 hr pre-incubation, ATP 100 μM; read-out: Enzyme Inhibition IC50 p38γ.

Series [2] has as its target T2, p38 MAPKα isoform (MAPK14: Invitrogen) (Homo sapiens, UniProt Q16539).
T2 construct: purchased Invitrogen
Put plainly: p38 MAPKα enzyme inhibition assay (FRET, Z-LYTE, via MAPKAP-K2 activation). The series is classed as biochemical. As to conditions: 2 hr pre-incubation, ATP 10.0 μM; read-out: Enzyme Inhibition IC50 p38α.

Series [3] has as its system LPS-induced TNFα release in THP-1 cells. In words: LPS-induced TNFα release in THP-1 cells. Type of series: cell-based. As to conditions: Homo sapiens, 3 μg/mL LPS, 4 hr. How it is done: Cellular Potency as Determined by LPS-Induced TNFα Release in THP-1 Cells
THP-1 cells, a human monocytic cell line, were stimulated with 3 μg/mL of LPS (from E. Coli; 0111:B4, Sigma) for 4 hr and the supernatant collected for determination of the TNFα concentration by sandwich ELISA (Duo-set, R&D systems). The inhibition of TNFα production was calculated at each concentration by comparison with vehicle control. The 50% inhibitory concentration (IC50) was determined from the resultant concentration-response curve.

Series [4] has as its system Differentiated U937 cells. Put plainly: MTT assay: cell viability on exposure to test compounds. The note with it: percentage loss of cell viability vs vehicle, 1 μg/mL; for MTT Assay (Viability) 4 h d-U937: 5% FCS; for MTT Assay (Viability) 24 h d-U937: 10% FCS. The series is classed as cell-based, human. How it is done: MTT Assay: Determination of Cell Viability on Exposure to Test Compounds
Differentiated U937 cells were pre-incubated with each test compound under two protocols: the first for 4 hr in 5% FCS and the second in 10% FCS for 24 h. The supernatant was replaced with 200 μL of new media and 10 μL of MTT stock solution (5 mg/mL) was added to each well. After incubation for 1 hr the media were removed, 200 μL of DMSO was added to each well and the plates were shaken lightly for 1 hr prior to reading the absorbance at 550 nm. The percentage loss of cell viability was calculated for each well relative to vehicle (0.5% DMSO) treatment. Consequently an apparent increase in cell viability for drug treatment relative to vehicle is tabulated as a negative percentage.

In series [5] the test system is LPS-induced TNFα release in d-U937 cells. In words: LPS-induced TNFα release in d-U937 cells. Type of series: cell-based. As to conditions: Homo sapiens, dU937, 4 h; read-out: LPS/TNFα REC50 d-U937. How it is done:
(§1) Cellular Potency as Determined by LPS-Induced TNFα/IL-8 Release in d-U937Cells
(§2) U937 cells, a human monocytic cell line, were differentiated to macrophage-type cells by incubation with phorbol myristate acetate (PMA; 100 ng/mL) for 48 to 72 hr. Cells were pre-incubated with final concentrations of test compound for 2 hr and were then stimulated with 0.1 μg/mL of LPS (from E. Coli: O111:B4, Sigma) for 4 hr. The supernatant was collected for determination of TNFα and IL-8 concentrations by sandwich ELISA (Duo-set, R&D systems). […] The relative 50% effective concentration (REC50) was determined from the resultant concentration-response curve. The inhibition of IL-8 production was calculated at each concentration of test compound by comparison with vehicle control. The 50% inhibitory concentration (IC50) was determined from the resultant concentration-response curve.

The test system of series [6] is LPS-induced IL-8 release in d-U937 cells. In words: LPS-induced IL-8 release in d-U937 cells. The series is classed as cell-based. As to conditions: Homo sapiens, dU937, 0.1 μg/mL LPS, 4 hr. How it is done:
as §1, §2

The test system of series [7] is Poly I:C-induced ICAM-1 expression in BEAS2B cells. In words: Poly I:C-induced ICAM-1 induction in BEAS2B cells. The series is classed as cell-based. As to conditions: Homo sapiens, BEAS-2B, poly I:C 1 μg/mL, 18 hr, read-out: PolyI:C/ICAM1 IC50 BEAS2B. How it is done: Cellular Potency as Determined by Poly I:C-Induced ICAM-1 Induction in BEAS2B Cells
Poly I:C (1 μg/mL) (Invivogen Ltd., San Diego, Calif.) was transfected into BEAS2B cells (human bronchial epithelial cells, ATCC) with Oligofectamine (Invitrogen, Carlsbad, Calif.). Cells were pre-incubated with final concentrations of test compounds for 2 hr and the level of ICAM1 expression on the cell surface was determined by cell-based ELISA. At a time point 18 hr after poly I:C transfection, cells were fixed with 4% formaldehyde in PBS and then endogenous peroxidase was quenched by the addition of 0.1% sodium azide and 1% hydrogen peroxide. Cells were washed with wash-buffer (0.1% Tween in PBS: PBS-Tween). and after blocking the wells with 5% milk in PBS-Tween for 1 hr, the cells were incubated with anti-human ICAM-1 antibody (Cell Signaling Technology, Danvers, Mass.) in 1% BSA PBS overnight at 4° C. The cells were washed with PBS-Tween and incubated with the secondary antibody (HRP-conjugated anti-rabbit IgG, Dako Ltd., Glostrup, Denmark). The ICAM-1 signal was detected by adding substrate and reading the absorbance at 450 nm against a reference wavelength of 655 nm using a spectrophotometer. The cells were then washed with PBS-Tween and total cell numbers in each well were determined by reading absorbance at 595 nm after Crystal Violet staining and elution by 1% SDS solution. The measured OD 450-655 readings were corrected for cell number by dividing with the OD595 reading in each well. The inhibition of ICAM-1 expression was calculated at each concentration of test compound by comparison with vehicle control. The 50% inhibitory concentration (IC50) was determined from the resultant concentration-response curve.

T2 sequence (Q16539 whole entry, canonical isoform): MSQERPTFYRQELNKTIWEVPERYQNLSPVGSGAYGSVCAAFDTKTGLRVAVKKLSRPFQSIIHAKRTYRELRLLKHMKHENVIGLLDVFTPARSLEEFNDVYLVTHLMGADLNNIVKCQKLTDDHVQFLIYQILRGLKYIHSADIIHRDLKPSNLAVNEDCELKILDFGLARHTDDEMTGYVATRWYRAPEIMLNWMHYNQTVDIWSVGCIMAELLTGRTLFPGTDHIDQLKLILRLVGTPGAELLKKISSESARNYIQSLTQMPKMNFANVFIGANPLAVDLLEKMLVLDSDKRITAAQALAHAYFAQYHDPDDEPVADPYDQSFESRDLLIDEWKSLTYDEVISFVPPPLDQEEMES

Take `COCC(=O)Nc1cc(Oc2ccc(NC(=O)Nc3cc(C(C)(C)C)nn3-c3ccc(N)cc3)c3ccccc23)ccn1` [Example 1, N-(4-(4-(3-(1-(4-Aminophenyl)-3-tert-butyl-1H-pyrazol-5-yl)ureido)naphthalen-1-yloxy)pyridin-2-yl)-2-methoxyacetamide]: the IC50 in series [1] is 72.4 nM; in series [2], 0.9 nM; in series [3] it was 1 nM; in series [6], 1 nM; in series [7], 8.3 nM. Moreover, in series [4], the “MTT Assay (Viability) 4 h d-U937” value is −26.6%. In series [4], the “MTT Assay (Viability) 24 h d-U937” value came to 78.0%. Also, the EC50 in series [5] came out at 0.6 nM.
For `CN(C)C(=O)Nc1cc(Oc2ccc(NC(=O)Nc3cc(C(C)(C)C)nn3-c3ccc(S(C)(=O)=O)cc3)c3ccccc23)ccn1` [Example 15, 3-(4-(4-(3-(3-tert-Butyl-1-(4-(methylsulfonyl)phenyl)-1H-pyrazol-5-yl)ureido)naphthalen-1-yloxy)pyridin-2-yl)-1,1-dimethylurea], the IC50 is 81.5 nM in series [1]; 23.6 nM in series [2]; 1.5 nM in series [3]; 2.4 nM in series [6]; 16.3 nM in series [7]. The “MTT Assay (Viability) 4 h d-U937” value in series [4] was −15.4%. Further, the “MTT Assay (Viability) 24 h d-U937” value in series [4] was −66.2%.
As to `COCC(=O)Nc1cc(Oc2ccc(NC(=O)Nc3cc(C4(C)CC4)nn3-c3ccc(C)cc3)c3ccccc23)ccn1` [Example 25, 2-methoxy-N-(4-(4-(3-(3-(1-methylcyclopropyl)-1-p-tolyl-1H-pyrazol-5-yl)ureido)naphthalen-1-yloxy)pyridin-2-yl)acetamide], the IC50 in series [1] turned out to be 3010 nM; in series [2] it was 3.4 nM; in series [3], 0.9 nM; in series [6], 0.7 nM; in series [7] it was 21.8 nM. Besides, the “MTT Assay (Viability) 4 h d-U937” value in series [4] was −7.6%. The “MTT Assay (Viability) 24 h d-U937” value in series [4] worked out at 4.7%.
Take `CC(C)(C)c1cc(NC(=O)Nc2ccc(Oc3ccnc(NC(=O)N4CCCC4)c3)c3ccccc23)n(-c2ccc(O)cc2)n1` [Example 35, N-(4-(4-(3-(3-tert-butyl-1-(4-hydroxyphenyl)-1H-pyrazol-5-yl)ureido)naphthalen-1-yloxy)pyridin-2-yl)pyrrolidine-1-carboxamide]: the IC50 was determined as 324 nM in series [1]; 11.3 nM in series [2]; 1.6 nM in series [3]; 1.9 nM in series [6]; 2.1 nM in series [7]. For the same molecule, in series [4], the “MTT Assay (Viability) 4 h d-U937” value is −15.4%. In addition, the “MTT Assay (Viability) 24 h d-U937” value in series [4] is −41.3%.
In the case of `COCC(=O)Nc1cc(Oc2ccc(NC(=O)Nc3cc(C(C)(C)C)nn3-c3ccc(CO)c(OC)c3)c3ccccc23)ccn1` [Example 51, N-(4-(4-(3-(3-tert-butyl-1-(4-(hydroxymethyl)-3-methoxyphenyl)-1H-pyrazol-5-yl)ureido)naphthalen-1-yloxy)pyridin-2-yl)-2-methoxy acetamide], the IC50 in series [1] is 149 nM; in series [2], 11.9 nM; in series [3], 1.6 nM; in series [6], 38.7 nM; in series [7], 2.5 nM. Moreover, the “MTT Assay (Viability) 4 h d-U937” value in series [4] is −5.2%. Also, the “MTT Assay (Viability) 24 h d-U937” value in series [4] is on record as 61.0%.
For `COCC(=O)Nc1cc(Oc2ccc(NC(=O)Nc3cc(C(C)(C)C)nn3-c3cccs3)c3ccccc23)ccn1` [Example 56, N-(4-(4-(3-(3-tert-butyl-1-(thiophen-2-yl)-1H-pyrazol-5-yl)ureido)naphthalen-1-yloxy)pyridin-2-yl)-2-methoxyacetamide], the IC50 was 55 nM in series [1]; 6.6 nM in series [2]; 0.6 nM in series [3]; 0.5 nM in series [6]; 13.4 nM in series [7]. In addition, the “MTT Assay (Viability) 4 h d-U937” value in series [4] is given as 4.8%. Moreover, the “MTT Assay (Viability) 24 h d-U937” value in series [4] was 43.1%.
